Earlier results, collected in patent publication US20040229960A1, “Compositions and methods of administering tubulin binding agents for the treatment of ocular diseases” (priority 2001, published 2004).

Settings: cited from earlier work

In the case of `COc1ccc(/C=C\c2cc(OC)c(OC)c(OC)c2)cc1O` [CA4, combretastatin A4], the Solubility in water is listed as “essentially insoluble in water”.
